# Read-outs that look alike come from different tables or passages of the source.
# Test system: Japanese patients with advanced solid malignancies
# Description: This was a phase 1, open-label, multicenter, dose escalation study. […] All doses were required to be taken in a fasted state (no caloric intake from 2 h before dosing to 1 h after dosing).
# All evaluations during the bid dosing regimen were conducted in 21-day assessment cycles. Patients were enrolled to ensure a minimum of three and a maximum of six evaluable patients per cohort. Dose escalation and de-escalation were determined by the number of dose-limiting toxicities (DLTs; defined as any toxicity related to study drug as assessed by the investigator and not attributable to the disease under investigation) in a cohort. […] If one patient in a group of […] evaluable patients experienced a DLT, the cohort was expanded to include six evaluable patients. […] If ≥2 patients in a group of up to six evaluable patients experienced a DLT, irrespective of the number of patients enrolled, the dose was considered not tolerated and recruitment to the cohort and dose escalation was ceased. De-escalation to a lower intermediary dose could be considered in order to better define the MTD.
# Based on emerging clinical data from the continuous dosing regimen of this study and data from the Western Study 1 (D3610C00001, NCT01226316), which was running in parallel with the Japanese study, an intermittent dosing regimen was also evaluated in Japanese patients and with a starting dose of 480 mg bid and a 4/3 dosing schedule.
# Safety and tolerability were assessed in terms of adverse events (AEs), serious adverse events (SAEs), deaths, laboratory data, vital signs, electrocardiogram (ECG), assessment of glucose metabolism, and physical examination. AEs were graded according to the Common Terminology Criteria for Adverse Events (CTCAE) version 4.0. Any AE occurring after the first dose of study treatment and within 30 days of the last dose of study treatment was included in the AE summaries.
smiles,measurement,setting,value
NC1(C(=O)N[C@@H](CCO)c2ccc(Cl)cc2)CCN(c2ncnc3[nH]ccc23)CC1 [AZD5363],AE with outcome of death: Any,"80 mg bid continuous, n=3",0 (0.0) number (%) of patients
same,AE with outcome of death: Any,"240 mg bid continuous, n=7",0 (0.0) number (%) of patients
same,AE with outcome of death: Any,"320 mg bid continuous, n=6",0 (0.0) number (%) of patients
same,AE with outcome of death: Any,"360 mg bid intermittent 4/3, n=8",0 (0.0) number (%) of patients
same,AE with outcome of death: Any,"400 mg bid continuous, n=5",0 (0.0) number (%) of patients
same,AE with outcome of death: Any,"480 mg bid intermittent 4/3, n=6",0 (0.0) number (%) of patients
same,AE with outcome of death: Any,"640 mg bid intermittent 2/5, n=6",0 (0.0) number (%) of patients
same,AE with outcome of death: Any,"Total, n=41",0 (0.0) number (%) of patients
same,MTD,either of the intermittent dosing schedules,not reached
same,AEs of CTCAE grade ≥3: Any,"human, in vivo",26 (63.4) number (%) of patients
same,AEs of CTCAE grade ≥3: Diarrhea,"human, in vivo",7 (17.1) number (%) of patients
same,AEs of CTCAE grade ≥3: Hyperglycemia,"human, in vivo",16 (39.0) number (%) of patients
same,AEs of CTCAE grade ≥3: Lymphocyte count decreased,"human, in vivo",3 (7.3) number (%) of patients
same,AEs of CTCAE grade ≥3: Neutrophil count decreased,"human, in vivo",4 (9.8) number (%) of patients
same,AEs: Blood creatinine increased,"human, in vivo",14 (34.1) number (%) of patients
same,AEs: Decreased appetite,"human, in vivo",20 (48.8) number (%) of patients
same,AEs: Diarrhea,"human, in vivo",32 (78.0) number (%) of patients
same,AEs: Hyperglycemia,"human, in vivo",28 (68.3) number (%) of patients
same,AEs: Maculopapular rash,"human, in vivo",23 (56.1) number (%) of patients
same,AEs: Nausea,"human, in vivo",23 (56.1) number (%) of patients
same,AEs: Proteinuria,"human, in vivo",16 (39.0) number (%) of patients
same,AEs: Pyrexia,"human, in vivo",20 (48.8) number (%) of patients
same,AEs: Stomatitis,"human, in vivo",17 (41.5) number (%) of patients
same,AEs: White blood cell count decreased,"human, in vivo",13 (31.7) number (%) of patients
same,Adverse events (AEs): Any,"human, in vivo",40 (97.6) number (%) of patients
same,SAE: Any,"human, in vivo",3 (7.3) number (%) of patients
same,patients who experienced an AE of CTCAE grade ≥3,"human, in vivo",63.4%
same,patients who experienced at least one AE,"human, in vivo",97.6%
same,patients with AE diarrhea,"human, in vivo",78.0%
same,patients with AE hyperglycemia,"human, in vivo",68.3%
same,patients with AE maculopapular rash,"human, in vivo",56.1%
same,patients with AE nausea,"human, in vivo",56.1%
same,patients with AEs leading to dose interruption,"human, in vivo",39.0%
same,patients with CTCAE grade ≥3 diarrhea,"human, in vivo",17.1%
same,patients with CTCAE grade ≥3 hyperglycemia,"human, in vivo",39.0%
same,patients with a grade ≥3 AE considered to be treatment related,"human, in vivo",58.5%
same,patients with discontinuation due to an AE,"human, in vivo",12.2%
same,DLTs reported,in vivo,No DLTs
same,patients who experienced DLTs,in vivo,five
same,patients who experienced an SAE,in vivo,Three
same,deaths related to AEs,"overall, all cohorts",no deaths

# Reference: article PMC4819940 (Cancer Chemotherapy and Pharmacology, 2016)
